Results published in ChEMBL document CHEMBL4482317, “Phosphatidylcholine transfer protein inhibitors” (2017).
pIC50: −log10 of the molar value. Calls of active or inactive are those of the source. No cut-off for these calls is given here.

How the values were obtained:
[1] = molecular target: T1, Phosphatidylcholine transfer protein (Homo sapiens) (UniProt Q9UKL6); assay: Inhibition of PC-TP in human hepatocytes assessed as enhancement of insulin signaling by measuring p-AKT S473 levels at 0.05 to 0.1 uM incubated for 60 mins by immunoblot analysis; assay type: cell-based
T1 sequence (whole entry): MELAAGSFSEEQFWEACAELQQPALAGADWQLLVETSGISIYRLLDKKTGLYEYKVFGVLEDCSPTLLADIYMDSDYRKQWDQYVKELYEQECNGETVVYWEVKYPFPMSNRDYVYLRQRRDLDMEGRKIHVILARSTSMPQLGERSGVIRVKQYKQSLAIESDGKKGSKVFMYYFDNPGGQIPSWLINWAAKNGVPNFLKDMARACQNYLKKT

[2] = molecular target: T1, Phosphatidylcholine transfer protein (Homo sapiens); assay: Inhibition of PC-TP in human hepatocytes assessed as enhancement of insulin signaling by measuring p-GSK-3beta S9 levels at 0.05 to 0.1 uM incubated for 60 mins by immunoblot analysis; assay type: cell-based
[3] = molecular target: T1, Phosphatidylcholine transfer protein (Homo sapiens); assay: Inhibition of PC-TP in human hepatocytes assessed as enhancement of insulin signaling by measuring p-AMPK-alpha T172 levels at 0.05 to 0.1 uM incubated for 60 mins by immunoblot analysis; assay type: cell-based
[4] = molecular target: T1, Phosphatidylcholine transfer protein (Homo sapiens); assay: Inhibition of PC-TP in human hepatocytes assessed as enhancement of insulin signaling by measuring p-S6K T389 levels at 0.05 to 0.1 uM incubated for 60 mins by immunoblot analysis; assay type: cell-based
[5] = molecular target: T2, Phosphatidylcholine transfer protein (Homo sapiens, UniProt Q9UKL6); assay: Inhibition of N-terminal His-tagged human PC-TP expressed in Escherichia coli using NBD-PC and donor and acceptor small unilamellar vesicles by fluorescence quench assay
T2 sequence (Q9UKL6 whole entry): T1 sequence (whole entry)

[6] = molecular target: T1, Phosphatidylcholine transfer protein (Homo sapiens); assay: Binding affinity to N-terminal His-tagged human PC-TP expressed in Escherichia coli at 5 to 75 uM in presence of TCNQ by fluorescent pyrene-labeled phosphatidylcholine based displacement assay
[7] = molecular target: T1, Phosphatidylcholine transfer protein (Homo sapiens); assay: Binding affinity to N-terminal His-tagged human PC-TP expressed in Escherichia coli assessed as relative binding constant K(rel) at 5 to 75 uM in presence of TCNQ by fluorescent pyrene-labeled phosphatidylcholine based displacement assay relative to control

inhibition [1] | inhibition [2] | inhibition [3] | inhibition [4] | pIC50 [5] | Activity [6] | Ratio [7] | Compound
Active | Active | Active | Active |  |  |  | O=C(Nc1cc(Cl)cc(Cl)c1)C(Sc1cccc[n+]1[O-])c1ccccc1 (stereo unspecified)
 |  |  |  | 4.00 |  |  | Cc1ccc(NC(=O)C(Sc2cccc[n+]2[O-])c2ccccc2)cc1Cl (stereo unspecified)
Active | Active | Active | Active |  | Dose-dependent effect | 1.1 | Cc1cc(C)nc(NS(=O)(=O)c2ccc(NC(=O)NC(=O)c3ccc(Cl)cc3Cl)cc2)n1
